{
  "source": "paper PMC3898987",
  "about": "(Bioorganic & Medicinal Chemistry, 2013)",
  "key": {"[1]": {"biological_target": "T1, 5-HT3AB receptor, 5-HT3B subunit Y143A (Homo sapiens, UniProt O95264+P46098, Y136A)", "T1 sequence (P46098 24-478)": "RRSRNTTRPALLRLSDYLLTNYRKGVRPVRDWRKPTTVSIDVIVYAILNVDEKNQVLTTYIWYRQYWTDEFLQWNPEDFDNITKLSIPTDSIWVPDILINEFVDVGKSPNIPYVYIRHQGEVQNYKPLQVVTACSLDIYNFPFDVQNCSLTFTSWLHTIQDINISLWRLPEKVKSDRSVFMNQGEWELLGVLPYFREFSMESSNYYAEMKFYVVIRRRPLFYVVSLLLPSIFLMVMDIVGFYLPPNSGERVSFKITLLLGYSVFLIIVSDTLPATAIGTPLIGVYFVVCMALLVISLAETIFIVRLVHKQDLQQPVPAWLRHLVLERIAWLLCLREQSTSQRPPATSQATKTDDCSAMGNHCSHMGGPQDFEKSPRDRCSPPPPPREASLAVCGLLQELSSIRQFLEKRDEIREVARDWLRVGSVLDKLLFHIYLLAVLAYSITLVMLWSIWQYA", "T1 sequence (O95264 22-441 Y136A)": "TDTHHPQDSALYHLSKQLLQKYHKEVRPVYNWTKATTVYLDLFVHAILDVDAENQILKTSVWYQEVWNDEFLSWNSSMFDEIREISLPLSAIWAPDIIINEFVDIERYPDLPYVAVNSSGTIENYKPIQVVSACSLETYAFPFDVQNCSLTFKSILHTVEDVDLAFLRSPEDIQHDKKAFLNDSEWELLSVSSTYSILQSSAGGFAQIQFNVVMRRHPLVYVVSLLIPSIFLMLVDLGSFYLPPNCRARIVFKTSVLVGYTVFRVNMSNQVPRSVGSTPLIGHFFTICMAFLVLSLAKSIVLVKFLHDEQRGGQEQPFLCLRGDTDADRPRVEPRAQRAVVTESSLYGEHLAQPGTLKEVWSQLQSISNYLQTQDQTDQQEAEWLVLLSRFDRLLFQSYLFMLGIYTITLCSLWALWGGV", "assay": "radioligand saturation binding, transfected HEK293 membranes", "conditions": "[3H]-palonosetron saturation, 5-HT3AB with 5-HT3B Y143A, 4 °C, 24 h", "method": "Human embryonic kidney (HEK) 293 cells were cultured on 90 mm tissue culture plates at 37 °C and 7% CO2 in a humidified atmosphere. They were grown in DMEM:F12 (Dulbecco’s Modified Eagle’s Medium/Nutrient Mix F12 (1:1)) with GlutaMAX I™ containing 10% fetal calf serum and passaged when confluent. For radioligand binding studies, cells in 90 mm dishes were transfected at 60–70% confluency using polyethyleneimine and incubated for 3–4 days before use. For FlexStation assays, transfected cells were plated on 96-well plates and incubated 1–2 days before assay. […]\nEight-point binding assays were performed to produce saturation binding curves. […] Radioactive counts were measured using a Beckman LS6000SC liquid scintillation counter (Fullerton, California, USA).\nData were analyzed by iterative curve fitting using GraphPad Prism v5 (San Diego, CA) according to the following equation: B=Bmax[L]^n/kdn+[L]^n where B is the amount of bound radioligand, Bmax is the maximum specific binding at equilibrium, [L] is the concentration of radioligand, Kd is the equilibrium dissociation constant of the radioligand, and n is the Hill coefficient."}, "[2]": {"biological_target": "T2, 5-HT3AB receptor, 5-HT3B subunit F130A (Homo sapiens, UniProt O95264+P46098, F123A)", "T2 sequence (P46098 24-478)": "T1 sequence (P46098 24-478)", "T2 sequence (O95264 22-441 F123A)": "T1 sequence (O95264 22-441 Y136A) with F102A, A115Y", "assay": "cell-based", "method": "Human embryonic kidney (HEK) 293 cells were cultured on 90 mm tissue culture plates at 37 °C and 7% CO2 in a humidified atmosphere. They were grown in DMEM:F12 (Dulbecco’s Modified Eagle’s Medium/Nutrient Mix F12 (1:1)) with GlutaMAX I™ containing 10% fetal calf serum and passaged when confluent. […] For FlexStation assays, transfected cells were plated on 96-well plates and incubated 1–2 days before assay.\nFluorometric studies were undertaken using a FlexStation® (Molecular Devices, Sunnyvale, CA, USA) as previously described.[11]\nFluorescence was measured every 2 s for 200 s. […] Concentration–response and inhibition curves were obtained for each mutant, and the fluorescence values were normalized to the maximal response."}},
  "note": "Positions count from the first letter of the chain named.",
  "data": [
    {"smiles": "O=C1c2cccc3c2[C@H](CCC3)CN1[C@@H]1CN2CCC1CC2", "note": "[Palonosetron]", "values": [
      {"measurement": "Kd", "setting": "[1]", "result": "0.18 ± 0.04", "unit": "nM"},
      {"measurement": "IC50", "setting": "[2]", "result": "0.84 ± 0.11", "unit": "nM"}
    ]}
  ]
}
